# Assays:
# [1] = system: crabgrass, large; assay: Test C postemergence; type: in vivo, Digitaria sanguinalis; conditions: for Plant response rating (scale of 0 to 100 where 0 is no effect and 100 is complete control), Crabgrass, Large: Postemergence, 31 g ai/ha, visually evaluated after 13 to 15 days; for Crabgrass, Large plant response rating / Plant response rating, Crabgrass, Large: postemergence; for Crabgrass, Large plant response rating: 62 g ai/ha, scale 0 to 100
# Summary of the method: (§1)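 Visual control ratings on a 0–100 scale (100 = complete control) made against untreated controls after 13 to 15 days in greenhouse. Compounds applied in surfactant-containing solvent mixture, either preemergence to loam/sand-sown seeds or postemergence to 1- to 4-leaf plants (2–18 cm) in peat medium.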
# [2] = system: pigweed; assay: Test C preemergence; type: in vivo, Amaranthus retroflexus; conditions: preemergence; for Plant response rating, Pigweed: 125 g ai/ha, scale 0 to 100, 0 = no effect, 100 = complete control
# Summary of the method: as §1
# [3] = system: lambsquarters; assay: Test C preemergence; type: in vivo, Chenopodium album; conditions: preemergence; for Plant response rating, Lambsquarters: 125 g ai/ha, scale 0 to 100, 0 = no effect, 100 = complete control
# Summary of the method: as §1
# [4] = system: oilseed rape; assay: Test C postemergence; type: in vivo, Brassica napus; conditions: for Oilseed Rape plant response rating / Plant response rating, Oilseed Rape: postemergence; for Oilseed Rape plant response rating: 62 g ai/ha, scale 0 to 100
# Summary of the method: as §1
# [5] = system: foxtail, giant; assay: Test A preemergence; type: in vivo, Setaria faberii; conditions: preemergence; for Foxtail, Giant plant response rating (0 to 100 scale): 125 g ai/ha, visual injury approx. 10 days after treatment; for Foxtail, Giant plant response rating: 500 g ai/ha, visual injury after approx. 10 days, 0 to 100 scale (0 no effect, 100 complete control)
# Summary of the method: (§2)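 Both timings tested concurrently in loam/sand soil: preemergence by directed soil spray, postemergence on plants of 2–10 cm at the one- to two-leaf stage. Greenhouse holding period was approximately 10 days before visual injury assessment (0–100, 0 = no effect).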
# [6] = system: johnsongrass; assay: Test C postemergence; type: in vivo, Sorghum halepense; conditions: for Plant response rating (scale of 0 to 100 where 0 is no effect and 100 is complete control), Johnsongrass: Postemergence, 31 g ai/ha, visually evaluated after 13 to 15 days; for Johnsongrass plant response rating / Plant response rating, Johnsongrass: postemergence; for Johnsongrass plant response rating: 62 g ai/ha, scale 0 to 100
# Summary of the method: as §1
# [7] = system: johnsongrass; assay: Test C preemergence; type: in vivo, Sorghum halepense; conditions: preemergence; for Plant response rating, Johnsongrass: 125 g ai/ha, scale 0 to 100, 0 = no effect, 100 = complete control
# Summary of the method: as §1
# [8] = system: blackgrass; assay: Test C postemergence; type: in vivo, Alopecurus myosuroides; conditions: for Plant response rating (scale of 0 to 100 where 0 is no effect and 100 is complete control), Blackgrass: Postemergence, 31 g ai/ha, visually evaluated after 13 to 15 days; for Blackgrass plant response rating / Plant response rating, Blackgrass: postemergence; for Blackgrass plant response rating: 62 g ai/ha, scale 0 to 100
# Summary of the method: as §1
# [9] = system: pigweed; assay: Test A preemergence; type: in vivo, Amaranthus retroflexus; conditions: preemergence; for Pigweed plant response rating (0 to 100 scale): 125 g ai/ha, visual injury approx. 10 days after treatment; for Pigweed plant response rating: 500 g ai/ha, visual injury after approx. 10 days, 0 to 100 scale (0 no effect, 100 complete control)
# Summary of the method: as §2
# [10] = system: blackgrass; assay: Test C preemergence; type: in vivo, Alopecurus myosuroides; conditions: preemergence; for Plant response rating, Blackgrass: 125 g ai/ha, scale 0 to 100, 0 = no effect, 100 = complete control
# Summary of the method: as §1
# [11] = system: waterhemp; assay: Test C postemergence; type: in vivo, Amaranthus rudis; conditions: for Plant response rating, Waterhemp / Waterhemp plant response rating: postemergence; for Plant response rating, Waterhemp: 250 g ai/ha, scale 0 to 100 (0 no effect, 100 complete control); for Waterhemp plant response rating: scale 0 to 100
# Summary of the method: as §1
# [12] = system: velvetleaf; assay: Test A preemergence; type: in vivo, Abutilon theophrasti; conditions: preemergence; for Velvetleaf plant response rating (0 to 100 scale): 125 g ai/ha, visual injury approx. 10 days after treatment; for Velvetleaf plant response rating: 500 g ai/ha, visual injury after approx. 10 days, 0 to 100 scale (0 no effect, 100 complete control)
# Summary of the method: as §2
# [13] = system: barnyardgrass; assay: Test B flood; type: in vivo, Echinochloa crus-galli; conditions: 250 g ai/ha, visual rating on 0 to 100 scale (0 no effect, 100 complete control), 13 to 15 days
# Summary of the method: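 2-leaf plants; pots flooded 3 cm over soil; compound added to paddy water, depth kept constant. Greenhouse 13–15 d. Visual rating vs controls, 0–100 scale (100 = complete control); dash = no result.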
# [14] = system: wheat; assay: Test A preemergence; type: in vivo, Triticum aestivum; conditions: preemergence; for Wheat plant response rating (0 to 100 scale): 125 g ai/ha, visual injury approx. 10 days after treatment; for Wheat plant response rating: 500 g ai/ha, visual injury after approx. 10 days, 0 to 100 scale (0 no effect, 100 complete control)
# Summary of the method: as §2
# [15] = 250 g ai/ha, scale 0 to 100 (0 no effect, 100 complete control)
# [16] = 125 g ai/ha, scale 0 to 100, 0 no effect, 100 complete control
# [17] = 31 g ai/ha, visual rating, scale 0 to 100 (0 no effect, 100 complete control), 13 to 15 days
# [18] = 62 g ai/ha, scale 0 to 100 (0 no effect, 100 complete control), 13 to 15 days
# [19] = 250 g ai/ha, scale 0 to 100, 0 is no effect, 100 is complete control
# [20] = Postemergence, 31 g ai/ha, visually evaluated after 13 to 15 days
structure (smiles),measurement,setting,value
O=C(NC1CC1)c1cc(CCCl)n(Cc2ccnc(C(F)(F)F)c2)n1 [Compound 144],"Plant response rating (scale of 0 to 100 where 0 is no effect and 100 is complete control), Crabgrass, Large",[1],10
same,"Crabgrass, Large plant response rating",[1],10
same,"Plant response rating, Crabgrass, Large",[1]; [15],55
same,"Plant response rating, Crabgrass, Large",[1]; [16],10
same,Pigweed plant response rating,[2]; [17],98
same,Pigweed plant response rating,[2]; [18],100
same,"Plant response rating, Pigweed",[2]; 13 to 15 days,100
same,Pigweed plant response rating,[2]; [19],100
same,Lambsquarters plant response rating,[3]; [17],95
same,Lambsquarters plant response rating,[3]; [18],98
same,"Plant response rating, Lambsquarters",[3]; 13 to 15 days,98
same,Lambsquarters plant response rating,[3]; [19],98
same,"Plant response rating (scale of 0 to 100 where 0 is no effect and 100 is complete control), Oilseed Rape",[4]; [20],50
same,Oilseed Rape plant response rating,[4],50
same,"Plant response rating, Oilseed Rape",[4]; [15],65
same,"Plant response rating, Oilseed Rape",[4]; [16],60
same,"Foxtail, Giant plant response rating (0 to 100 scale)",[5],100
same,"Foxtail, Giant plant response rating",[5],100
same,"Plant response rating (scale of 0 to 100 where 0 is no effect and 100 is complete control), Johnsongrass",[6],5
same,Johnsongrass plant response rating,[6],5
same,"Plant response rating, Johnsongrass",[6]; [15],15
same,"Plant response rating, Johnsongrass",[6]; [16],10
same,Johnsongrass plant response rating,[7]; [17],0
same,Johnsongrass plant response rating,[7]; [18],35
same,"Plant response rating, Johnsongrass",[7]; 13 to 15 days,75
same,Johnsongrass plant response rating,[7]; [19],100
same,"Plant response rating (scale of 0 to 100 where 0 is no effect and 100 is complete control), Blackgrass",[8],20
same,Blackgrass plant response rating,[8],5
same,"Plant response rating, Blackgrass",[8]; [15],35
same,"Plant response rating, Blackgrass",[8]; [16],30
same,Pigweed plant response rating (0 to 100 scale),[9],100
same,Pigweed plant response rating,[9],100
same,Blackgrass plant response rating,[10]; [17],40
same,Blackgrass plant response rating,[10]; [18],40
same,"Plant response rating, Blackgrass",[10]; 13 to 15 days,90
same,Blackgrass plant response rating,[10]; [19],90
same,"Plant response rating (scale of 0 to 100 where 0 is no effect and 100 is complete control), Waterhemp",[11]; [20],65
same,"Plant response rating, Waterhemp",[11],75
same,Waterhemp plant response rating,[11],75
same,Velvetleaf plant response rating (0 to 100 scale),[12],50
same,Velvetleaf plant response rating,[12],100
same,"Plant response rating, Barnyardgrass",[13],30
same,Wheat plant response rating (0 to 100 scale),[14],50
same,Wheat plant response rating,[14],100
CCOc1cc(C(=O)NOC(C)C)nn1Cc1ccnc(C(F)(F)F)c1 [Compound 153],"Plant response rating (scale of 0 to 100 where 0 is no effect and 100 is complete control), Crabgrass, Large",[1],5
same,"Crabgrass, Large plant response rating",[1],10
same,"Plant response rating, Crabgrass, Large",[1]; [15],45
same,"Plant response rating, Crabgrass, Large",[1]; [16],15
same,Pigweed plant response rating,[2]; [17],20
same,Pigweed plant response rating,[2]; [18],95
same,"Plant response rating, Pigweed",[2]; 13 to 15 days,100
same,Pigweed plant response rating,[2]; [19],98
same,Lambsquarters plant response rating,[3]; [17],85
same,Lambsquarters plant response rating,[3]; [18],98
same,"Plant response rating, Lambsquarters",[3]; 13 to 15 days,98
same,Lambsquarters plant response rating,[3]; [19],100
same,Oilseed Rape plant response rating,[4],25
same,"Plant response rating, Oilseed Rape",[4]; [15],45
same,"Plant response rating, Oilseed Rape",[4]; [16],40
same,"Foxtail, Giant plant response rating (0 to 100 scale)",[5],100
same,"Foxtail, Giant plant response rating",[5],100
same,"Plant response rating (scale of 0 to 100 where 0 is no effect and 100 is complete control), Johnsongrass",[6],0
same,Johnsongrass plant response rating,[6],5
same,"Plant response rating, Johnsongrass",[6]; [15],5
same,"Plant response rating, Johnsongrass",[6]; [16],0
same,Johnsongrass plant response rating,[7]; [17],5
same,Johnsongrass plant response rating,[7]; [18],35
same,"Plant response rating, Johnsongrass",[7]; 13 to 15 days,75
same,Johnsongrass plant response rating,[7]; [19],95
same,"Plant response rating (scale of 0 to 100 where 0 is no effect and 100 is complete control), Blackgrass",[8],0
same,Blackgrass plant response rating,[8],5
same,"Plant response rating, Blackgrass",[8]; [15],5
same,"Plant response rating, Blackgrass",[8]; [16],5
same,Pigweed plant response rating (0 to 100 scale),[9],100
same,Pigweed plant response rating,[9],100
same,Blackgrass plant response rating,[10]; [17],80
same,Blackgrass plant response rating,[10]; [18],90
same,"Plant response rating, Blackgrass",[10]; 13 to 15 days,90
same,Blackgrass plant response rating,[10]; [19],90
same,"Plant response rating, Waterhemp",[11],65
same,Waterhemp plant response rating,[11],40
same,Velvetleaf plant response rating (0 to 100 scale),[12],90
same,Velvetleaf plant response rating,[12],100
same,"Plant response rating, Barnyardgrass",[13],45
same,Wheat plant response rating (0 to 100 scale),[14],100
same,Wheat plant response rating,[14],100
